According to ChEMBL document CHEMBL5137024, “Discovery of novel coumarin-indole derivatives as tubulin polymerization inhibitors with potent anti-gastric cancer activities” (Eur J Med Chem, 2022):
Calls of active or inactive are those of the source. The rule behind the calls is not given here.

What was measured:
[1] = tested on: MGC-803; experiment: Induction of apoptosis in human MGC-803 cells assessed as increase in cleavage caspase 7 level; format: functional, cell-based; conditions: dose 5-15 nM, DDE = dose-dependent effect
[2] = target: T1, Tubulin beta (Homo sapiens) (UniProt P68371+Q9H4B7+Q13509+P04350+Q3ZCM7+P07437+Q13885+Q9BVA1+Q9BUF5+A6NNZ2); experiment: Binding affinity to beta-tubulin colchicine binding site in human HGC-27 cells assessed as decrease in beta-tubulin adduct band incubated for 2 hrs by EBI alkylate competition assay; format: cell-based; conditions: dose 0.075-0.75 µM, DDE = dose-dependent effect
[3] = tested on: MGC-803; experiment: Downregulation of c-Myc expression in human MGC-803 cells incubated for 48 hrs; format: functional, cell-based; conditions: dose 5-15 nM, DDE = dose-dependent effect
[4] = tested on: TE-1; experiment: Antiproliferative activity against human TE-1 cells assessed as reduction in cell viability incubated for 48 hrs by MTT assay; format: functional, cell-based; conditions: TE-1, 48 h
[5] = tested on: HGC-27; experiment: Induction of apoptosis in human HGC-27 cells assessed as increase in dead cells at 10 to 30 nM incubated for 48 hrs by calcein-AM dye/propidium iodide staining based analysis; format: functional, cell-based; conditions: dose 10-30 nM
[6] = tested on: HGC-27; experiment: Upregulation of phosphorylated Histone H3 expression in human HGC-27 cells at 10 to 30 nM incubated for 48 hrs; format: functional, cell-based; conditions: dose 10-30 nM
[7] = Induction of mitochondria mediated intrinsic apoptosis in human MGC-803 cells assessed as late apoptotic cells at 5 nM measured after 48 hrs by flow cytometry analysis (Rvb= […]); format: functional
[8] = target: T2, Tubulin (Homo sapiens) (UniProt P68371+Q9H4B7+P0DPH7+P68366+Q13509+Q71U36+P04350+Q3ZCM7+P07437+P68363+Q9BQE3+Q6PEY2+Q13885+Q9BVA1+Q9BUF5); experiment: Disruption of microtubule network in human MGC-803 cells assessed as incomplete mitosis at 5 to 15 nM measured after 48 hrs by DAPI staining based fluorescence microscopic analysis; format: cell-based; conditions: dose 5-15 nM
[9] = tested on: MGC-803; experiment: Antiproliferative activity against human MGC-803 cells assessed as reduction in cell viability incubated for 12 to 48 hrs by MTT assay; format: functional, cell-based; conditions: dose 15-30 nM, time 12-48 hrs, DDE = dose-dependent effect
[10] = tested on: NCI-H520; experiment: Antiproliferative activity against human NCI-H520 cells assessed as reduction in cell viability incubated for 48 hrs by MTT assay; format: functional, cell-based; conditions: NCI-H520, 48 h
[11] = tested on: HGC-27; experiment: Downregulation of cdc2 phosphorylation at Thr14 residue in human HGC-27 cells at 10 to 30 nM incubated for 48 hrs; format: functional, cell-based; conditions: dose 10-30 nM
[12] = tested on: Mus musculus; experiment: Upregulation of phosphorylated Histone H3 expression in tumor tissue of BALB/c nude mouse xenografted with human MGC-803 cells at 15 to 30 mg/kg, ip administered once daily for 21 days by Western blotting analysis; format: functional, organism-based; conditions: dose 15-30 mg/kg, time 21.0 day
[13] = tested on: HGC-27; experiment: Induction of apoptosis in human HGC-27 cells assessed as decrease in cIAP-1 level; format: functional, cell-based; conditions: dose 10-30 nM, DDE = dose-dependent effect
[14] = target: T2, Tubulin (Homo sapiens); experiment: Disruption of microtubule network in human MGC-803 cells assessed as irregular form of filamentous microtubule structures at 5 to 15 nM measured after 48 hrs by DAPI staining based fluorescence microscopic analysis; format: cell-based; conditions: dose 5-15 nM
[15] = tested on: MGC-803; experiment: Induction of apoptosis in human MGC-803 cells assessed as upregulation of cleavage caspase 8 level; format: functional, cell-based; conditions: dose 5-15 nM, DDE = dose-dependent effect
[16] = Toxicity in BALB/c nude mouse xenografted with human MGC-803 cells assessed as pathological changes in spleen at 15 to 30 mg/kg, ip administered once daily for 21 days by Hematoxyin-eosin staining based analysis; format: organism-based; conditions: in vivo, 504 h, dose 15-30 mg/kg, time 21 day
[17] = tested on: HGC-27; experiment: Induction of apoptosis in human HGC-27 cells assessed as decrease in XIAP level; format: functional, cell-based; conditions: dose 10-30 nM, DDE = dose-dependent effect
[18] = tested on: MGC-803; experiment: Induction of apoptosis in human MGC-803 cells assessed as increase in total apoptotic cells at 15 nM incubated for 48 hrs by annexin V FITC and propidium iodide staining based flow cytometry analysis (reference value: 3.4%); format: functional
[19] = tested on: Mus musculus; experiment: Downregulation of JNK phosphorylation in tumor tissue of BALB/c nude mouse xenografted with human MGC-803 cells at 15 to 30 mg/kg, ip administered once daily for 21 days by Western blotting analysis; format: functional, organism-based; conditions: dose 15-30 mg/kg, time 21.0 day
[20] = tested on: MGC-803; experiment: Downregulation of FoxO3a expression in human MGC-803 cells incubated for 48 hrs; format: functional, cell-based; conditions: dose 5-15 nM, DDE = dose-dependent effect
[21] = target: Tubulin (Sus scrofa, UniProt P02554+P02550); experiment: Inhibition of porcine brain tubulin polymerization by fluorescence based assay; format: tissue-based
[22] = target: c-Jun N-terminal kinase, JNK (Homo sapiens) (UniProt P45983+P53779+P45984); experiment: Inhibition of JNK signalling pathway in human HGC-27 cells assessed as reduction in JNK phosphorylation at 10 to 30 nM incubated for 48 hrs; format: cell-based; conditions: dose 10-30 nM
[23] = target: T1, Tubulin beta (Homo sapiens); experiment: Binding affinity to beta-tubulin colchicine binding site in human MGC-803 cells assessed as decrease in beta-tubulin adduct band incubated for 2 hrs by EBI alkylate competition assay; format: cell-based; conditions: dose 0.075-0.75 µM, DDE = dose-dependent effect
[24] = tested on: HGC-27; experiment: Inhibition of cell migration in human HGC-27 cells assessed as reduction in wound healing rate at 10 to 30 nM incubated for 24 hrs; format: functional, cell-based; conditions: dose 10-30 nM
[25] = tested on: MGC-803; experiment: Induction of apoptosis in human MGC-803 cells assessed as increase in cleavage caspase 3 level; format: functional, cell-based; conditions: dose 5-15 nM, DDE = dose-dependent effect
[26] = tested on: MGC-803; experiment: Inhibition of colony formation in human MGC-803 cells incubated for 7 days by crystal violet staining based analysis; format: functional, cell-based; conditions: dose 2-10 nM, time 7.0 day, DDE = dose-dependent effect
[27] = tested on: MGC-803; experiment: Induction of apoptosis in human MGC-803 cells assessed as increase in dead cells at 5 to 15 nM incubated for 48 hrs by calcein-AM dye/propidium iodide staining based analysis; format: functional, cell-based; conditions: dose 5-15 nM
[28] = tested on: MCF7; experiment: Antiproliferative activity against human MCF7 cells assessed as reduction in cell viability incubated for 48 hrs by MTT assay; format: functional, cell-based; conditions: MCF7, 48 h
[29] = target: T2, Tubulin (Homo sapiens); experiment: Disruption of microtubule network in human MGC-803 cells assessed as cytoskeleton disruption at 5 to 15 nM measured after 48 hrs by DAPI staining based fluorescence microscopic analysis; format: cell-based; conditions: dose 5-15 nM
[30] = tested on: MGC-803; experiment: Induction of apoptosis in human MGC-803 cells assessed as decrease in Mcl-1 level; format: functional, cell-based; conditions: dose 5-15 nM, DDE = dose-dependent effect
[31] = tested on: HGC-27; experiment: Antiproliferative activity against human HGC-27 cells assessed as reduction in cell viability incubated for 48 hrs by MTT assay; format: functional, cell-based; conditions: HGC-27, 48 h
[32] = tested on: MGC-803; experiment: Antitumor activity against human MGC-803 cells xenografted BALB/c nude mouse assessed as inhibition of tumor volume at 15 to 30 mg/kg, ip administered once daily for 21 days and measured every 2 days; format: functional, organism-based; conditions: dose 15-30 mg/kg, time 21.0 day
[33] = tested on: Mus musculus; experiment: Downregulation of Ki67 expression in tumor tissue of BALB/c nude mouse xenografted with human MGC-803 cells at 15 to 30 mg/kg, ip administered once daily for 21 days by immunohistochemistry analysis; format: functional, organism-based; conditions: dose 15-30 mg/kg, time 21.0 day
[34] = tested on: MGC-803; experiment: Inhibition of ERK signalling pathway in human MGC-803 cells assessed as downregulation of ERK1/2 phosphorylation at 5 to 15 nM incubated for 48 hrs; format: cell-based; conditions: dose 5-15 nM
[35] = tested on: HGC-27; experiment: Antiproliferative activity against human HGC-27 cells assessed as reduction in cell viability incubated for 12 to 48 hrs by MTT assay; format: functional, cell-based; conditions: dose 15-30 nM, time 12-48 hrs, DDE = dose-dependent effect

## CN(c1ccc2c(ccn2C)c1)c1cc(=O)oc2ccccc12
[1]
  Activity: Dde
[2]
  Activity: Dde
[3]
  Activity: Dde
[4]
  IC50: 489 nM
[5]
  Activity: Active
[6]
  Activity: Active
[7]
  Activity: 98.1%
[8]
  Activity: Active
[9]
  Activity: Dde
[10]
  IC50: 33.4 nM
[11]
  Activity: Active
[12]
  Activity: Active
[13]
  Activity: Dde
[14]
  Activity: Active
[15]
  Activity: Dde
[16]
  Activity: Non-Toxic
[17]
  Activity: Dde
[18]
  Activity: 40.2%
[19]
  Activity: Active
[20]
  Activity: Dde
[21]
  IC50: 2460 nM
[22]
  inhibition: Active
[23]
  Activity: Dde
[24]
  inhibition: Active
[25]
  Activity: Dde
[26]
  inhibition: Dde
[27]
  Activity: Active
[28]
  IC50: 435 nM
[29]
  Activity: Active
[30]
  Activity: Dde
[31]
  IC50: 23.8 nM
[32]
  Activity: Active
[33]
  Activity: Active
[34]
  inhibition: Active
[35]
  Activity: Dde
